Source: patent publication US20230129095A1, “PEPTIDE INHIBITORS OF INTERLEUKIN-23 RECEPTOR AND THEIR USE TO TREAT INFLAMMATORY DISEASES” (Protagonist Therapeutics, Inc., priority 2020, published 2023)
*1 amine or outer side, *2 acyl side, *3 side chain or, on linkers, in order; H or OH if unused. Where a SMILES comes first, the peptide text is derived from it. Bridges are numbered along the chain shown (N, C = ends). [ ]: non-standard residue; d: D form. X6 = O=C([C@H](Cc1c[nH]c2c(-c3cccc(OC(F)(F)F)c3)cccc12)N[*:1])[*:2]; X5 = CC(C)c1cccc(-c2cccc3c(C[C@H](N[*:1])C(=O)[*:2])c[nH]c23)c1; X8 = COc1cccc(-c2cccc3c(C[C@H](N[*:1])C(=O)[*:2])c[nH]c23)c1; Trp(7-Ph) = N[C@@H](Cc1c[nH]c2c(-c3ccccc3)cccc12)C(=O)O; Abu(4-yl) = O=C([C@H](CC[*:3])N[*:1])[*:2]; 2Nal = N[C@@H](Cc1ccc2ccccc2c1)C(=O)O; AEF = NCCOc1ccc(C[C@H](N)C(=O)O)cc1; Pen = CC(C)(S)[C@H](N)C(=O)O; αMeK = C[C@](N)(CCCCN)C(=O)O

Experiments:
Type in all cases: in vitro ADME
[1] = Stability in cynomolgus monkey fecal homogenate (anaerobic); conditions: pH 6.8, 20% cynomolgus monkey fecal homogenate, 37° C., up to 24 hours, read-out: t1/2: Monkey Feces anaerobic (converted)
Method: (§1) Studies were carried out in human or cynomolgus monkey fecal homogenate to evaluate gastrointestinal stability of the peptide inhibitors of the present invention.
(§2) Fecal homogenate ([…]) was prepared by adding 4 mL of growth medium (1 liter contains 2 g peptone water powder, 2 g yeast extract, 0.1 g NaCl, 0.04 g KH2PO4, 0.01 g CaCl2.6H2O, 0.01 g MgSO4.7H2O, 2 mL Tween 80, 0.5 g bile salts, 0.5 g L-cysteine HCl, 2 g NaHCO3, and 10 μL Vitamin K, pH adjusted to 6.8, and sterilized by filtration through a 0.22 μm filter) to every gram of feces (pooled freshly collected human or cynomolgus monkey feces). The suspension was vortexed to break up large clumps, and homogenized using a bead mill homogenizer. Centrifuged the homogenate at 2800×g for 15 min. The supernatant is taken out and used for incubations. DMSO stocks (10 mM) were first prepared for the test compounds. Incubations were performed in an anaerobic chamber conditioned at 37° C. Aliquots of the DMSO solutions were dosed into 1.0 mL aliquots of 20% fecal homogenate, which are pre-warmed to 37° C. The final test compound concentration was 20 μM. At each timepoint (0, 20 min, 1, 3, 6, or 24 hours), 100 μL aliquot of each incubation mixture is taken out and added to separate tubes containing 300 μL of 50% acetonitrile/50% methanol and an internal standard to terminate the reaction. Samples were taken out of the anaerobic chamber and stored at 4° C. until the end of the experiment. After the final timepoint is sampled, the tubes were mixed and then centrifuged at 3,000 rpm for 10 minutes. Aliquots of the supernatant were removed, diluted 1:1 into distilled water containing 0.1% formic acid, and analyzed by LC/MS/MS. Percent remaining at each timepoint was calculated based on the peak area response ratio of test to compound to internal standard. Time 0 was set to 100%, and all later timepoints were calculated relative to time 0. Half-lives were calculated by fitting to a first-order exponential decay equation using Graphpad or Excel.

[2] = Stability in simulated intestinal fluid (SIF); conditions: 37° C.; for SIF t1/2: 100 fold dilution of standard SIF concentration, 20 μM; for half-life at 20 μM: pH 6.8, 100 fold dilution of standard SIF concentration, read-out: SIF t1/2 (converted)
Method: Studies were carried out in simulated intestinal fluid (SIF) and simulated gastric fluid (SGF) to evaluate gastric stability of the peptide inhibitors of the present invention. In addition, studies were carried out to assess redox stability of the peptide inhibitors of the present invention.
SIF was prepared by adding 6.8 g of monobasic potassium phosphate and 10.0 g of pancreatin to 1.0 L of water. After dissolution, the pH was adjusted to 6.8 using NaOH. DMSO stocks (2 mM) were first prepared for the test compounds. Aliquots of the DMSO solutions were dosed into 6 individual tubes, each containing 0.5 mL of SIF, which is pre-warmed to 37° C. The final test compound concentration was 20 μM. The vials were kept in a benchtop Thermomixer® for the duration of the experiment. At each timepoint (0, 5, 10, 20, 40, 60, or 360 minutes or 24 hours), 1.0 mL of acetonitrile containing 1% formic acid was added to one vial to terminate the reaction. Samples were stored at 4° C. until the end of the experiment. After the final timepoint is sampled, the tubes were mixed and then centrifuged at 3,000 rpm for 10 minutes. Aliquots of the supernatant were removed, diluted 1:1 into distilled water containing internal standard, and analyzed by LCMS/MS. Percent remaining at each timepoint was calculated based on the peak area response ratio of test to compound to internal standard. Time 0 was set to 100%, and all later timepoints were calculated relative to time 0. Half-lives were calculated by fitting to a first-order exponential decay equation using Graphpad.

Stability in rat plasma = conditions: both sexes, pooled, SD rat plasma, EDTA, 37° C., up to 24 hours, read-out: t1/2: Rat Plasma EDTA
Method: Peptides of interest (20 μM) were incubated with pre-warmed rat plasma (SD rat, mixed gender pooled, EDTA, filtered through 0.22 μm, BioreclamationIVT) at 37° C. Aliquots were taken at various time points up to 24 hours (e.g. 0, 0.25, 1, 3, 6 and 24 hr), and immediately quenched with 4 volumes of organic solvent (acetonitrile/methanol (1:1) and 0.1% formic acid, containing 1 μM internal standard). Quenched samples were stored at 4° C. until the end of the experiment and centrifuged at 4,000 rpm for 10 minutes. The supernatant were diluted 1:1 with deionized water and analyzed using LC-MS. Percentage remaining at each time point was calculated based on the peak area ratio (analyte over internal standard) relative to the initial level at time zero. Half-lives were calculated by fitting to a first-order exponential decay equation using GraphPad.

[3] = Stability in human fecal homogenate (anaerobic); conditions: pH 6.8, 20% human fecal homogenate, 37° C., up to 24 hours, read-out: t1/2: Human Feces anaerobic
Method: as §1, §2

Row | SMILES | half-life at 20 μM [1] [h] | SIF t1/2 [2] [h] | half-life at 20 μM (Stability in rat plasma) [h] | half-life at 20 μM [3] [h] | half-life at 20 μM [2] [h]
1 | CC(=O)NCCCC[C@@H]1NC(=O)[C@H](Cc2c[nH]c3c(-c4cccc(OC(F)(F)F)c4)cccc23)NC(=O)[C@H]([C@@H](C)O)NC(=O)[C@H](CC(N)=O)NC(=O)[C@@H](NC(C)=O)C(C)(C)SSC(C)(C)[C@@H](C(=O)N[C@@H](Cc2ccc(OCCN)cc2)C(=O)N[C@@H](Cc2ccc3ccccc3c2)C(=O)N[C@@](C)(CCCCN)C(=O)N[C@@H](CCCCNC(C)=O)C(=O)N[C@@H](CC(N)=O)C(=O)N[C@H](CCCCN)C(N)=O)NC1=O [Peptide 12, Ac-[Pen]-N-T-[W(7-(3-OCF3Ph))]-[Lys(Ac)]-[Pen]-Phe[4-(2-aminoethoxy)]-[2-Nal]-[a-MeLys]-[Lys(Ac)]-N-[(D)Lys)]-NH2] (Ac-[Pen]NT[X6]K(Ac)[Pen][AEF][2Nal][αMeK]K(Ac)N[dK]-NH2; disulfide 1-6) | > 6 | 24 | > 24 | > 24 | 
2 | CC(=O)NCCCC[C@@H]1NC(=O)[C@H](Cc2c[nH]c3c(-c4ccccc4)cccc23)NC(=O)[C@H]([C@@H](C)O)NC(=O)[C@H](CCC(N)=O)NC(=O)[C@@H](NC(=O)[C@@H](CCCNC(=N)N)NC(C)=O)CCSC[C@@H](C(=O)N[C@@H](Cc2ccc(OCCN)cc2)C(=O)N[C@@H](Cc2ccc3ccccc3c2)C(=O)N[C@@](C)(CCCCN)C(=O)N[C@@H](CCCCNC(C)=O)C(=O)N[C@@H](CC(N)=O)C(=O)N[C@H](CC(C)C)C(N)=O)NC1=O [Peptide 3, Ac-[(D)Arg]-Abu-Q-T-[W(7-Ph)]-[Lys(Ac)]-[Cys]-Phe[4-(2-aminoethoxy)]-[2-Nal]-[a-MeLys]-[Lys(Ac)]-N-[(D)Leu]-NH2] (Ac-[dR][Abu(4-yl)]QT[Trp(7-Ph)]K(Ac)C[AEF][2Nal][αMeK]K(Ac)N[dL]-NH2; thioether 2-7) | > 24 | 24 | > 24 | > 24 | 
3 | CC(=O)NCCCC[C@@H]1NC(=O)[C@H](Cc2c[nH]c3c(-c4cccc(C(C)C)c4)cccc23)NC(=O)[C@H]([C@@H](C)O)NC(=O)[C@H](CC(N)=O)NC(=O)[C@@H](NC(C)=O)C(C)(C)SSC(C)(C)[C@@H](C(=O)N[C@@H](Cc2ccc(OCCN)cc2)C(=O)N[C@@H](Cc2ccc3ccccc3c2)C(=O)N[C@@](C)(CCCCN)C(=O)N[C@@H](CCCCNC(C)=O)C(=O)N[C@@H](CC(N)=O)C(=O)N[C@H](CCCCN)C(N)=O)NC1=O [Peptide 11, Ac-[Pen]-N-T-[W(7-(3-iPrPh))]-[Lys(Ac)]-[Pen]-Phe[4-(2-aminoethoxy)]-[2-Nal]-[a-MeLys]-[Lys(Ac)]-N-[(D)Lys)]-NH2] (Ac-[Pen]NT[X5]K(Ac)[Pen][AEF][2Nal][αMeK]K(Ac)N[dK]-NH2; disulfide 1-6) | > 24 | 24 | > 24 | > 24 | 
4 | CC(=O)NCCCC[C@@H]1NC(=O)[C@H](Cc2c[nH]c3c(-c4ccccc4)cccc23)NC(=O)[C@H]([C@@H](C)O)NC(=O)[C@H](CCC(N)=O)NC(=O)[C@@H](NC(=O)[C@@H](CCCNC(=N)N)NC(C)=O)CCSC[C@@H](C(=O)N[C@@H](Cc2ccc(OCCN)cc2)C(=O)N[C@@H](Cc2ccc3ccccc3c2)C(=O)N[C@@](C)(CCCCN)C(=O)N[C@@H](CCCCNC(C)=O)C(=O)N[C@@H](CC(N)=O)C(=O)N[C@H](CCCCN)C(N)=O)NC1=O [Peptide 5, Ac-[(D)Arg]-[Abu]-Q-T-[W(7-Ph)]-[Lys(Ac)]-[Cys]-Phe[4-(2-aminoethoxy)]-[2-Nal]-[a-MeLys]-[Lys(Ac)]-N-[(D)Lys)]-NH2] (Ac-[dR][Abu(4-yl)]QT[Trp(7-Ph)]K(Ac)C[AEF][2Nal][αMeK]K(Ac)N[dK]-NH2; thioether 2-7) | > 24 |  | > 24 | > 24 | 6
5 | CC(=O)NCCCC[C@@H]1NC(=O)[C@H](Cc2c[nH]c3c(-c4ccccc4)cccc23)NC(=O)[C@H]([C@@H](C)O)NC(=O)[C@H](CCC(N)=O)NC(=O)[C@@H](NC(C)=O)CCSC[C@@H](C(=O)N[C@@H](Cc2ccc(OCCN)cc2)C(=O)N[C@@H](Cc2ccc3ccccc3c2)C(=O)N[C@@](C)(CCCCN)C(=O)N[C@@H](CCCCNC(C)=O)C(=O)N[C@@H](CC(N)=O)C(=O)N[C@H](CCCCN)C(N)=O)NC1=O [Peptide 19, Ac-[Abu]-Q-T-[W(7-Ph)]-[Lys(Ac)]-[Cys]-Phe[4-(2-aminoethoxy)]-[2-Nal]-[a-MeLys]-[Lys(Ac)]-N-[(D)Lys]-NH2] (Ac-[Abu(4-yl)]QT[Trp(7-Ph)]K(Ac)C[AEF][2Nal][αMeK]K(Ac)N[dK]-NH2; thioether 1-6) | 21.8 |  | > 24 | > 24 | 17.8
6 | COc1cccc(-c2cccc3c(C[C@@H]4NC(=O)[C@H]([C@@H](C)O)NC(=O)[C@H](CC(N)=O)NC(=O)[C@@H](NC(C)=O)C(C)(C)SSC(C)(C)[C@@H](C(=O)N[C@@H](Cc5ccc(OCCN)cc5)C(=O)N[C@@H](Cc5ccc6ccccc6c5)C(=O)N[C@@](C)(CCCCN)C(=O)N[C@@H](CCCCNC(C)=O)C(=O)N[C@@H](CC(N)=O)C(=O)N[C@H](CCCCN)C(N)=O)NC(=O)[C@H](CCCCNC(C)=O)NC4=O)c[nH]c23)c1 [Peptide 8, Ac-[Pen]-N-T-[W(7-(3-OMePh))][Lys(Ac)]-[Pen]-Phe[4-(2-aminoethoxy)]-[2-Nal]-[a-MeLys]-[Lys(Ac)]-N-[(D)Lys)]-NH2] (Ac-[Pen]NT[X8]K(Ac)[Pen][AEF][2Nal][αMeK]K(Ac)N[dK]-NH2; disulfide 1-6) | > 24 | 24 | > 24 | > 24 | 
7 | CC(=O)NCCCC[C@@H]1NC(=O)[C@H](Cc2c[nH]c3c(-c4ccccc4)cccc23)NC(=O)[C@H]([C@@H](C)O)NC(=O)[C@H](CCC(N)=O)NC(=O)[C@@H](NC(=O)[C@@H](CCCNC(=N)N)NC(C)=O)CCSC[C@@H](C(=O)N[C@@H](Cc2ccc(OCCN)cc2)C(=O)N[C@@H](Cc2ccc3ccccc3c2)C(=O)N[C@@](C)(CCCCN)C(=O)N[C@@H](CCCCNC(C)=O)C(=O)N[C@@H](CC(N)=O)C(N)=O)NC1=O [Peptide 4, Ac-[(D)Arg]-[Abu]-Q-T-[W(7-Ph)]-[Lys(Ac)]-[Cys]-Phe[4-(2-aminoethoxy)]-[2-Nal]-[a-MeLys]-[Lys(Ac)]-NNH2] (Ac-[dR][Abu(4-yl)]QT[Trp(7-Ph)]K(Ac)C[AEF][2Nal][αMeK]K(Ac)N-NH2; thioether 2-7) | 14.1 |  | > 24 | > 24 | 5.1
